Assay results from paper PMC6044507 (ACS Omega, 2018).

Experiments:
[1] = molecular target: T1, human GPR84 (Homo sapiens, UniProt Q9NQS5); assay: cell-based; format: cell-based; details: for percent receptor activation at 10 μM, cAMP assay: compound 10 μM; for percent receptor activation at 10 μM, cAMP assay / EC50: forskolin 10 μM; for Emax: read-out: efficacy (Emax), cAMP assay; for EC50: CHO cells expressing human GPR84
Target sequence in this assay (Q9NQS5 whole entry): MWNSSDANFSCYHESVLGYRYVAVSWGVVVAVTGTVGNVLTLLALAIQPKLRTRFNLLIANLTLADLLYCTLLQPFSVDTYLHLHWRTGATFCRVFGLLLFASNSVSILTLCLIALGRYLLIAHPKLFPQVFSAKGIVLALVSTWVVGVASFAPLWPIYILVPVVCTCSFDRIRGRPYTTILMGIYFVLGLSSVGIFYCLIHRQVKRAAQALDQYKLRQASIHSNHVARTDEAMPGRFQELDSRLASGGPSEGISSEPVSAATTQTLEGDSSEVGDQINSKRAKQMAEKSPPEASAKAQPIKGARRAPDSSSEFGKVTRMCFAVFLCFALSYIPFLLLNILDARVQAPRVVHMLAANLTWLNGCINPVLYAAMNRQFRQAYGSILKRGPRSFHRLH

[2] = molecular target: T1, human GPR84; assay: cell-based; details: EC50 ± SEM, β-arrestin assay, CHO cells expressing human GPR84
Target sequence in this assay (Q9NQS5 whole entry): as above
Target sequence in this assay (P32121 whole entry partner): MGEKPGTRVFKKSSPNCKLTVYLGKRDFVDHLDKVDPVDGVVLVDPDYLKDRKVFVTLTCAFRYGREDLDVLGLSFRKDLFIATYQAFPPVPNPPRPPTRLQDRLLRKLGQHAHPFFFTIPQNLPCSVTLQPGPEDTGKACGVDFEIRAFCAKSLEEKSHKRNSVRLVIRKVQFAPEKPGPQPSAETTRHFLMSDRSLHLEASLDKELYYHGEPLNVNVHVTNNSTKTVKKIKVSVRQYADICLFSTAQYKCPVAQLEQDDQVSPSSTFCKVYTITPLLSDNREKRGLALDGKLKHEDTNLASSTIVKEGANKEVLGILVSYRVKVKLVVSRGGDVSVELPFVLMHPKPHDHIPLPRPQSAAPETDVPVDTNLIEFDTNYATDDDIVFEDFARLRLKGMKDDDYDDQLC

[3] = metabolic stability in human liver microsomes; format: in vitro ADME; details: human microsomes, 30 min

percent receptor activation at 10 μM, cAMP assay [1] [%]	Emax [1] [%]	EC50 ([1]; EC50 ± SEM, cAMP assay) [nM]	other results	SMILES
32				O=Nc1c(NCCc2ccccc2)[nH]c(=O)[nH]c1=O [Compound 79]
	112			O=c1cc(NCCc2cccs2)[nH]c(=O)[nH]1 [Compound 63, 6-(Thiophen-2-yl)ethylamino-2,4(1H,3H)-pyrimidinedione]
	117		EC50 [2]: 1800 ± 200 nM	O=c1cc(N2CCN(c3ccc(Cl)cc3)CC2)[nH]c(=O)[nH]1 [Compound 68, 6-[4-(p-Chlorophenyl)-1-piperazinyl]-2,4(1H,3H)-pyrimidinedione]
	53	38 ± 7		COc1ccccc1N1CCN(c2cc(=O)[nH]c(=O)[nH]2)CC1 [Compound 69]
14				CC(C)CCNc1cc(=O)[nH]c(=O)[nH]1 [Compound 17]
			drug disappeared after 30 min of incubation [3]: ~40%	CCCCCCSc1nc(O)cc(O)n1 [2-hexylthiopyrimidine-4,6-diol (5), 2-hexylthiopyrimidine-4,6-diol, reference compound]
	136			O=c1cc(NCCc2cccc(F)c2)[nH]c(=O)[nH]1 [Compound 53, 6-(m-Fluorophenylethylamino)-2,4(1H,3H)-pyrimidinedione]
	107	73 ± 5		O=c1cc(NCCCOc2ccccc2)[nH]c(=O)[nH]1 [Compound 65, 6-(3-Phenoxypropylamino)-2,4(1H,3H)-pyrimidinedione]
	113	44 ± 4	EC50 [2]: 82 ± 35 nM	O=c1cc(NCCc2ccc(Cl)cc2Cl)[nH]c(=O)[nH]1 [Compound 61, 6-(o,p-Dichlorophenethylamino)-2,4(1H,3H)-pyrimidinedione]
15			agonistic activity at GPR84 in cAMP assay, in words [1]: inactive	CCNc1cc(=O)[nH]c(=O)[nH]1 [Compound 13]
6			agonistic activity at GPR84 in cAMP assay, in words [1]: completely inactive	CCCCCCCCNc1c[nH]c(=O)[nH]c1=O [Compound 39]
	100	23000 ± 3000		CSCCCNc1cc(=O)[nH]c(=O)[nH]1 [Compound 26, N^6-Methylthiopropyluracil]
	120	1700 ± 600		O=c1cc(NCCCc2ccccc2)[nH]c(=O)[nH]1 [Compound 43, 6-(3-Phenylpropylamino)-2,4(1H,3H)-pyrimidinedione]
	113	100 ± 50	EC50 [2]: 730 ± 130 nM	O=c1cc(NCCOc2ccccc2)[nH]c(=O)[nH]1 [Compound 64, 6-(2-Phenoxyethylamino)-2,4(1H,3H)-pyrimidinedione]
	125	130 ± 10	EC50 [2]: 300 ± 100 nM	O=c1cc(NCCc2cccc(Cl)c2)[nH]c(=O)[nH]1 [Compound 54, 6-(m-Chlorophenylethylamino)-2,4(1H,3H)-pyrimidinedione]
	123	7400 ± 1600		CCCCCCNc1[nH]c(=O)[nH]c(=O)c1Br [Compound 72]
	108	24 ± 10		Oc1cc(NCCCCc2ccccc2)nc(O)n1 [Compound 44, 6-(4-Phenylbutylamino)-2,4(1H,3H)-pyrimidinedione]
18				CC(C)(C)CCNc1cc(=O)[nH]c(=O)[nH]1 [Compound 18]
	111	57 ± 21	EC50 [2]: 760 ± 370 nM	COc1ccc(CCNc2cc(=O)[nH]c(=O)[nH]2)cc1 [Compound 50, 6-(p-Methoxyphenylethylamino)-2,4(1H,3H)-pyrimidinedione]
	109			CCCCCCCCCCNc1cc(=O)[nH]c(=O)[nH]1 [Compound 23, 6-Decylamino-2,4(1H,3H)-pyrimidinedione]
	134	79 ± 25	EC50 [2]: 780 ± 220 nM	Cc1cccc(CCNc2cc(=O)[nH]c(=O)[nH]2)c1 [Compound 52, 6-(m-Methylphenylethylamino)-2,4(1H,3H)-pyrimidinedione]
14			agonistic activity at GPR84 in cAMP assay, in words [1]: abolished activity	CCCCC(CC)CNc1cc(=O)[nH]c(=O)[nH]1 (racemic) [Compound 24, N^6-(R,S)-(2-ethyl)hexyluracil]
	147	64 ± 5	EC50 [2]: 190 ± 30 nM	O=c1cc(NCCc2cccc(Br)c2)[nH]c(=O)[nH]1 [Compound 55, 6-(m-Bromophenylethylamino)-2,4(1H,3H)-pyrimidinedione]
	137	150 ± 40		O=c1cc(N2CCN(Cc3cccc4ccccc34)CC2)[nH]c(=O)[nH]1 [Compound 71, 6-[4-(1-Naphthylmethyl)-1-piperazinyl]-2,4(1H,3H)-pyrimidinedione]
	114	13 ± 1	EC50 [2]: 320 ± 150 nM	Cc1ccc(CCNc2cc(=O)[nH]c(=O)[nH]2)cc1 [Compound 45, 6-(p-Methylphenylethylamino)-2,4(1H,3H)-pyrimidinedione]
	105		EC50 ([1]; EC50, cAMP assay): 1980 nM; EC50 [2]: 2100 ± 600 nM	O=c1cc(NCCCCCCCO)[nH]c(=O)[nH]1 [Compound 28, 6-(7-Hydroxyheptylamino)-2,4(1H,3H)-pyrimidinedione]
	111	65 ± 14	EC50 [2]: 2000 ± 800 nM	O=c1cc(NCCc2ccc(F)cc2)[nH]c(=O)[nH]1 [Compound 46, 6-(p-Fluorophenylethylamino)-2,4(1H,3H)-pyrimidinedione]
	74	2000 ± 500		CCCCCCCCCNc1cc(=O)n(C)c(=O)[nH]1 [Compound 32, 6-Nonylamino-3-methyl-2,4(1H,3H)-pyrimidinedione]

percent receptor activation at 10 μM, cAMP assay [1] [%]	Emax [1] [%]	EC50 ([1]; EC50 ± SEM, cAMP assay) [nM]	other results	SMILES
15				O=c1[nH]c(NCCCc2ccccc2)c(Br)c(=O)[nH]1 [Compound 75]
25				O=C(O)CCCCCNc1cc(=O)[nH]c(=O)[nH]1 [Compound 29]
11				CC(C)CNc1cc(=O)[nH]c(=O)[nH]1 [Compound 15]
	113	12 ± 6		CCCCCCCNc1cc(=O)[nH]c(=O)[nH]1 [Compound 21, 6-Heptylamino-2,4(1H,3H)-pyrimidinedione]
	122	100 ± 20	EC50 [2]: 1300 ± 100 nM	O=c1cc(NCCc2ccccc2Cl)[nH]c(=O)[nH]1 [Compound 58, 6-(o-Chlorophenylethylamino)-2,4(1H,3H)-pyrimidinedione]
	114		EC50 [2]: 6700 ± 1800 nM	O=c1[nH]c(NCCc2ccc(Br)cc2)c(Br)c(=O)[nH]1 [Compound 74, 5-Bromo-6-(p-bromophenylethylamino)-2,4(1H,3H)-pyrimidinedione]
13			agonistic activity at GPR84 in cAMP assay, in words [1]: inactive	O=c1cc(N2CCC(c3ccccc3)CC2)[nH]c(=O)[nH]1 [Compound 66]
	114	2000 ± 600		CCCCCCCCNc1[nH]c(=O)[nH]c(=O)c1Br [Compound 73, 5-Bromo-6-octylamino-2,4(1H,3H)-pyrimidinedione]
	104	500 ± 50		CCCCCCCNc1[nH]c(=O)[nH]c(=O)c1N=O [Compound 77, 6-Heptylamino-5-nitroso-2,4(1H,3H)-pyrimidinedione]
	114	130 ± 10	EC50 [2]: 600 ± 160 nM	O=c1cc(N2CCC(Cc3ccccc3)CC2)[nH]c(=O)[nH]1 [Compound 67, 6-(4-Benzylpiperidin-1yl)-2,4(1H,3H)-pyrimidinedione]
−9			agonistic activity at GPR84 in cAMP assay, in words [1]: inactive	CCCNc1cc(=O)[nH]c(=O)[nH]1 [Compound 14]
	99	5900 ± 2600		CC(C)CCCCCNc1cc(=O)[nH]c(=O)[nH]1 [Compound 25]
19				O=c1cc(NCCc2ccccc2Br)[nH]c(=O)[nH]1 [Compound 59]
	96	3200 ± 100		Cc1ccccc1CCNc1cc(=O)[nH]c(=O)[nH]1 [Compound 56, 6-(o-Methylphenylethylamino)-2,4(1H,3H)-pyrimidinedione]
13				O=C(O)CCCCCCCNc1cc(=O)[nH]c(=O)[nH]1 [Compound 30]
4				CC(C)(C)CNc1cc(=O)[nH]c(=O)[nH]1 [Compound 16]
25			agonistic activity at GPR84 in cAMP assay, in words [1]: virtually abolished potency	CCCCCCCCNc1cc(=O)n(C)c(=O)n1C [Compound 36]
12			agonistic activity at GPR84 in cAMP assay, in words [1]: inactive	O=c1cc(NCc2ccccc2)[nH]c(=O)[nH]1 [Compound 40]
34				CCCCCCCCNc1cc(=O)[nH]c(=O)n1C [Compound 35]
51 ± 8				O=c1cc(NCCCCCCO)[nH]c(=O)[nH]1 [Compound 27]
7				COc1ccccc1N1CCN(CCCNc2cc(=O)n(C)c(=O)n2C)CC1 [urapidil, reference compound]
32				CCCCCCNc1cc(=O)[nH]c(=O)n1C [Compound 34]
23			agonistic activity at GPR84 in cAMP assay, in words [1]: inactive	O=c1cc(NCc2cccc3ccccc23)[nH]c(=O)[nH]1 [Compound 41]
	106	460 ± 130	EC50 [2]: 4800 ± 1300 nM	CCCCCNc1cc(=O)[nH]c(=O)[nH]1 [Compound 19, 6-Pentylamino-2,4(1H,3H)-pyrimidinedione]
	106	110 ± 40		CCCCCCN(C)c1cc(=O)[nH]c(=O)[nH]1 [Compound 37, 6-(N-Methylhexylamino)-2,4(1H,3H)-pyrimidinedione]
	120	7700 ± 500		CCCCCCNc1[nH]c(=O)[nH]c(=O)c1N=O [Compound 76]
	107		EC50 [2]: 640 ± 20 nM	CCCCCCCCN(C)c1cc(=O)[nH]c(=O)[nH]1 [Compound 38, 6-(N-Methyloctylamino)-2,4(1H,3H)-pyrimidinedione]
